Results taken from patent US8802597B2, “Herbicidal pyrimidines” (E I du Pont de Nemours and Company, priority 2003, dated 2014).

How the values were obtained:
Format in all cases: in vivo
[1] = tested on: morningglory (Ipomoea coccinea); assay: Test C pre/postemergence; settings: for Morningglory plant response rating: scale 0 to 100 (0 no effect, 100 complete control)
Method in brief: (§1)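 Injury scored visually 12–14 days after application on 0–100 scale (100 = complete control), relative to controls. Compounds, formulated with surfactant in non-phytotoxic solvent, applied to soil at planting (pre) or to 1- to 4-leaf plants 2–18 cm tall (post) in greenhouse.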

[2] = tested on: woolly cupgrass (Eriochloa villosa); assay: Test C pre/postemergence; settings: for Cupgrass, Woolly plant response rating: scale 0 to 100 (0 no effect, 100 complete control)
Method in brief: as §1

[3] = tested on: pigweed (Amaranthus retroflexus); assay: Test C pre/postemergence; settings: for Pigweed plant response rating: scale 0 to 100 (0 no effect, 100 complete control)
Method in brief: as §1

[4] = tested on: Surinam grass (Brachiaria decumbens); assay: Test C pre/postemergence; settings: for Surinam Grass plant response rating: scale 0 to 100 (0 no effect, 100 complete control); for Plant response rating, Surinam Grass: scale 0 to 100
Method in brief: as §1

[5] = tested on: common ragweed (Ambrosia elatior); assay: Test C pre/postemergence; settings: for Ragweed plant response rating: scale 0 to 100 (0 no effect, 100 complete control)
Method in brief: as §1

soybean (Glycine max) = assay: Test C pre/postemergence; settings: for Soybean plant response rating: scale 0 to 100 (0 no effect, 100 complete control)
Method in brief: as §1

[6] = tested on: yellow nutsedge (Cyperus esculentus); assay: Test C pre/postemergence; settings: for Nutsedge, Yellow plant response rating: scale 0 to 100 (0 no effect, 100 complete control)
Method in brief: as §1

[7] = tested on: giant foxtail (Setaria faberii); assay: Test C pre/postemergence; settings: for Foxtail, Giant plant response rating: scale 0 to 100 (0 no effect, 100 complete control)
Method in brief: as §1

kochia (Kochia scoparia) = assay: Test C pre/postemergence; settings: for Kochia plant response rating: scale 0 to 100 (0 no effect, 100 complete control)
Method in brief: as §1

[8] = tested on: johnsongrass (Sorghum halepense); assay: Test C pre/postemergence; settings: for Johnsongrass plant response rating: scale 0 to 100 (0 no effect, 100 complete control)
Method in brief: as §1

[9] = tested on: common (oilseed) sunflower (Helianthus annuus); assay: Test C pre/postemergence; settings: Preemergence
Method in brief: as §1

[10] = tested on: chickweed (Stellaria media); assay: Test C postemergence; settings: for Plant response rating, Chickweed: scale 0 to 100
Method in brief: as §1

[11] = Postemergence, 250 g ai/ha, scale 0 to 100
[12] = Postemergence, 500 g ai/ha, scale 0 to 100
[13] = Preemergence, 62 g ai/ha, scale 0 to 100, 0 no effect, 100 complete control
[14] = Preemergence, 125 g ai/ha, scale 0 to 100
[15] = Preemergence, 250 g ai/ha, scale 0 to 100
[16] = Preemergence, 500 g ai/ha, scale 0 to 100

COC(=O)CNc1nc(C2CC2)nc(C(=O)OC)c1Br [Compound 10]
Morningglory plant response rating ([1]; Postemergence, 62 g ai/ha): 70
Morningglory plant response rating ([1]; Postemergence, 125 g ai/ha): 85
Plant response rating, Morningglory [1, 11]: 95
Plant response rating, Morningglory [1, 12]: 95
Plant response rating, Morningglory [1, 13]: 0
Plant response rating, Morningglory [1, 14]: 0
Plant response rating, Morningglory [1, 15]: 0
Plant response rating, Morningglory [1, 16]: 100
Cupgrass, Woolly plant response rating ([2]; Postemergence, 62 g ai/ha): 0
Cupgrass, Woolly plant response rating ([2]; Postemergence, 125 g ai/ha): 0
Plant response rating, Cupgrass, Woolly [2, 11]: 0
Plant response rating, Cupgrass, Woolly [2, 12]: 0
Plant response rating, Cupgrass, Woolly [2, 13]: 0
Plant response rating, Cupgrass, Woolly [2, 14]: 0
Plant response rating, Cupgrass, Woolly [2, 15]: 0
Plant response rating, Cupgrass, Woolly [2, 16]: 0
Pigweed plant response rating ([3]; Postemergence, 62 g ai/ha): 65
Pigweed plant response rating ([3]; Postemergence, 125 g ai/ha): 80
Plant response rating, Pigweed [3, 11]: 95
Plant response rating, Pigweed [3, 12]: 95
Plant response rating, Pigweed [3, 13]: 20
Plant response rating, Pigweed [3, 14]: 55
Plant response rating, Pigweed [3, 15]: 70
Plant response rating, Pigweed [3, 16]: 85
Surinam Grass plant response rating ([4]; Postemergence, 62 g ai/ha): 0
Surinam Grass plant response rating ([4]; Postemergence, 125 g ai/ha): 0
Plant response rating, Surinam Grass ([4]; Postemergence, 250 g ai/ha): 0
Plant response rating, Surinam Grass ([4]; Postemergence, 500 g ai/ha): 0
Plant response rating, Surinam Grass ([4]; Preemergence, 125 g ai/ha): 0
Plant response rating, Surinam Grass ([4]; Preemergence, 250 g ai/ha): 0
Plant response rating, Surinam Grass ([4]; Preemergence, 500 g ai/ha): 0
Ragweed plant response rating ([5]; Postemergence, 62 g ai/ha): 45
Ragweed plant response rating ([5]; Postemergence, 125 g ai/ha): 65
Plant response rating, Ragweed [5, 11]: 80
Plant response rating, Ragweed [5, 12]: 90
Plant response rating, Ragweed [5, 13]: 0
Plant response rating, Ragweed [5, 14]: 0
Plant response rating, Ragweed [5, 15]: 55
Plant response rating, Ragweed [5, 16]: 85
Soybean plant response rating (soybean (Glycine max); Postemergence, 62 g ai/ha): 70
Soybean plant response rating (soybean (Glycine max); Postemergence, 125 g ai/ha): 80
Plant response rating, Soybean (soybean (Glycine max); [11]): 90
Plant response rating, Soybean (soybean (Glycine max); [12]): 100
Plant response rating, Soybean (soybean (Glycine max); [13]): 0
Nutsedge, Yellow plant response rating ([6]; Postemergence, 62 g ai/ha): 0
Nutsedge, Yellow plant response rating ([6]; Postemergence, 125 g ai/ha): 0
Plant response rating, Nutsedge, Yellow [6, 11]: 0
Plant response rating, Nutsedge, Yellow [6, 12]: 0
Plant response rating, Nutsedge, Yellow [6, 13]: 0
Plant response rating, Nutsedge, Yellow [6, 14]: 0
Foxtail, Giant plant response rating ([7]; Postemergence, 62 g ai/ha): 0
Foxtail, Giant plant response rating ([7]; Postemergence, 125 g ai/ha): 0
Plant response rating, Foxtail, Giant [7, 11]: 0
Plant response rating, Foxtail, Giant [7, 12]: 0
Plant response rating, Foxtail, Giant [7, 13]: 0
Plant response rating, Foxtail, Giant [7, 14]: 0
Plant response rating, Foxtail, Giant [7, 15]: 0
Plant response rating, Foxtail, Giant [7, 16]: 0
Kochia plant response rating (kochia (Kochia scoparia); Postemergence, 62 g ai/ha): 80
Kochia plant response rating (kochia (Kochia scoparia); Postemergence, 125 g ai/ha): 90
Plant response rating, Kochia (kochia (Kochia scoparia); [11]): 95
Plant response rating, Kochia (kochia (Kochia scoparia); [12]): 100
Plant response rating, Kochia (kochia (Kochia scoparia); [13]): 0
Plant response rating, Kochia (kochia (Kochia scoparia); [14]): 0
Plant response rating, Kochia (kochia (Kochia scoparia); [15]): 45
Plant response rating, Kochia (kochia (Kochia scoparia); [16]): 65
Johnsongrass plant response rating ([8]; Postemergence, 62 g ai/ha): 0
Johnsongrass plant response rating ([8]; Postemergence, 125 g ai/ha): 0
Plant response rating, Johnsongrass [8, 11]: 0
Plant response rating, Johnsongrass [8, 12]: 0
Plant response rating, Johnsongrass [8, 13]: 0
Plant response rating, Johnsongrass [8, 14]: 0
Plant response rating, Johnsongrass [8, 15]: 0
Plant response rating, Johnsongrass [8, 16]: 0
Plant response rating, Sunflower ([9]; 62 g ai/ha, scale 0 to 100, 0 no effect, 100 complete control): 0
Plant response rating, Sunflower ([9]; 125 g ai/ha, scale 0 to 100): 0
Plant response rating, Sunflower ([9]; 250 g ai/ha, scale 0 to 100): 0
Plant response rating, Sunflower ([9]; 500 g ai/ha, scale 0 to 100): 0
Chickweed plant response rating ([10]; 62 g ai/ha, scale 0 to 100 (0 no effect, 100 complete control)): 0
Plant response rating, Chickweed ([10]; 125 g ai/ha): 0
Plant response rating, Chickweed ([10]; 250 g ai/ha): 20
Plant response rating, Chickweed ([10]; 500 g ai/ha): 70
